# According to US20260306641A1, “HELICASE DEGRADERS” (priority 2023, published 2026):
# How the values were obtained:
# HaCaT cells [1] = assay: CellTiter-Glo viability, HaCaT cells; format: cell-based, human; conditions: 72 hr
# Experimental: (§1) Human keratinocytes (HaCaT; RRID:CVCL_0038), 143B cells (osteosarcoma; RRID:CVCL_2270), and HEK-293T (RRID:CVCL_0063) cells were maintained in Dulbecco's Modified Eagle's Medium (DMEM) supplemented with 10% fetal bovine serum (FBS; Peak Serum, PS-FB-2). Human Psn1 (pancreatic ductal adenocarcinoma; RRID:CVCL_1644) and H460 (non-small cell lung carcinoma; RRID:CVCL_0459) cells were cultured in RPMI-1640 medium supplemented with 10% FBS. HaCaT cells were synchronized in Go using serum starvation for 48 hr and released into the cell cycle by addition of DMEM with 10% FBS (51). Novobiocin (cat #46531) and Courmermycin-A1 (cat #C9270) were obtained from Sigma. Etoposide (cat #S1225) and AT7519 (cat #S1524) were obtained from SelleckChem. All stock solutions of inhibitors were stored at −20° C. as 10 mM suspensions in DMSO.
# (§2) Cell viability determinations were performed using CellTiter-Glo Assays (Promega; cat #G7572). Cells were seeded in 96-well plates at a density of ~3×10^3 cells/well and treated with drugs for 72 hr, after which the cells were processed for viability using CellTiter-Glo reagent according to the instructions of the manufacturer. Each drug concentration test was performed using four replicates, and results averaged and plotted on graphs, +/−1 s.d.
# [2] = tested on: Psn1, H460 and 143B tumor lines; assay: CellTiter-Glo viability, tumor lines; format: cell-based, human
# Experimental: as §1, §2
# [3] = tested on: Dbf4-Cdc7 (DDK); Mcm2 S53 and S139; assay: Immunoblot of DDK-dependent Mcm2 phosphorylation, HaCaT cells; format: cell-based, human; conditions: extended exposure (18 hrs)
# Experimental: (§3) Immunoblots of total proteins from synchronized HaCaT cells treated with compounds at time of release (0 hr; beginning of G1 phase) and collected after 18 hrs of exposure. (FIG. 5A) DDK-dependent phosphorylation sites on Mcm2 were analyzed with phospho-specific antibodies. (FIG. 5B) Cdk1- and Cdk2-dependent targets (Rb, Cdc6, and PP1α) were analyzed with phospho-specific antibodies.
# [4] = tested on: Cdk1 and Cdk2 targets (Rb, Cdc6, PP1a); assay: Immunoblot of Cdk1/Cdk2-dependent targets, HaCaT cells; format: cell-based, human; conditions: extended exposure (18 hrs)
# Experimental: as §3
# [5] = tested on: hCMG complexes immunoprecipitated from HaCaT cells; assay: Co-immunoprecipitation, HaCaT nuclear extract; format: biochemical, human; conditions: 15 μM, 30 min
# Experimental: (§4) Nuclear extracts were prepared from synchronized HaCaT cells after releasing into S-phase (at 20 hrs post release) or HEK-293T cells expressing stable Flag-Mcm2 protein (human). Cells from one 10 cm dish were resuspended in […] of Buffer A (10 mM Hepes-KOH pH 7.5, 10 mM KCl, 1.5 mM MgCl2, 0.34 M sucrose, 10% glycerol, protease inhibitors, and 0.1% Triton-X-100) and incubated on ice for 5 min. The nuclear pellet was obtained by centrifugation at 4,000 rpm at 4° C. for 5 min and washed with the Buffer A without Triton X-100. The nuclear extract was obtained by resuspending the nuclear pellet in […] of Buffer A containing 420 mM potassium acetate and 0.01% Triton X-100, and incubating at 4° C. for 1 hr. The final concentration of potassium acetate in nuclear extracts was adjusted to 200 mM for the co-immunoprecipitation assays. For the co-immunoprecipitation assays, […] of indicated antibody [anti-Mcm2, anti-Psf1, or rabbit IgG (Sigma)], or 30 mL of mouse IgG or anti-Flag agarose beads (Sigma), was incubated with […] of nuclear extract at 4° C. for 4 hrs. Protein A/G agarose beads (30 mL, Santa Cruz, sc-2003) were added and incubated for 1 hr with antibodies. Agarose beads were washed once in Buffer A containing 200 mM potassium acetate and 0.01% Triton X-100 and incubated with 15 μM CA1 or DMSO (same concentration as in CA1 sample) for 30 min. Beads were washed in the same buffer and analyzed by immunoblotting with indicated antibodies.
# [6] = tested on: Flag-Mcm2 hCMG and replisome complexes from HEK-293T cells; assay: Co-immunoprecipitation, HEK-293T cells expressing Flag-Mcm2; format: biochemical, human; conditions: 15 μM, 30 min; Flag IP
# Experimental: as §4, with “Agarose beads were washed once in Buffer A containing 200 mM potassium acetate and 0.01% Triton X-100 and incubated with 15 μM CA1 or DMSO (same concentration as in CA1 sample) for 30 min.” left out
# [7] = tested on: Psn1, H460 and 143B tumor lines; assay: DNA damage (gamma-H2AX) and apoptosis (cleaved Parp) immunoblot, tumor lines; format: cell-based, human; conditions: 5 μM
# Experimental: (§5) FIGS. 7A-7C depict that CMGi induce DNA damage and selectively reduce tumor cell viability. (FIG. 7A) Cell Titer Glo viability assays for CA1/CMGi sensitivity were performed on 143B (OS), Psn1 (PDAC), and H460 (NSCLC) tumor lines. Novobiocin was tested against 143B cells as a comparison. (FIG. 7B) Immunoblot of chromatin-bound proteins (as indicated) from asynchronous 143B OS cells treated with 10 μM novobiocin or increasing concentrations of CA1 for 24 hrs. (FIG. 7C) Immunoblot of total proteins from Psn1, H460, 143B, and HaCaT cells treated with 5 μM CA1/CMGi or DMSO/novobiocin controls, or HaCaT treated with 15 μM CA1/CMGi (right side). The Psn1 and H460 cells were treated for 24 hrs, and 143B and HaCaT cells were treated for 48 hrs. Probing of blots was done with anti-gamma-H2AX (DNA damage signal) or anti-cleaved-Parp (apoptotic indicator). Anti-GAPDH is a loading control.
# HaCaT cells [8] = assay: DNA damage (gamma-H2AX) and apoptosis (cleaved Parp) immunoblot, HaCaT; format: cell-based, human; conditions: 15 μM, 48 hrs
# Experimental: as §5
# 143B cells = assay: CellTiter-Glo viability, 143B; format: cell-based, human; conditions: 72 hr
# Experimental: as §5, §2
# DNA Polymerase-theta = conditions: higher doses; cited from earlier work
Structure (SMILES),"IC50 (HaCaT cells [1]; Homo sapiens, HaCaT)","IC50 ([2]; Homo sapiens, 72 hr, all three tumor lines (Psn1, H460, 143B), read-out: tumor line viability IC50 estimates)","sensitivity of tumor lines relative to HaCaT ([2]; Psn1, H460, 143B vs HaCaT, 4320 min)",Mcm2 S53 and S139 phosphorylation [3],"phosphorylation of Cdk2 targets Rb, Cdc6 (S54P) and Cdk1 target PP1a [4]",Cdc45 association with MCMs ([5]; Mcm2 IP),MCM complexes ([5]; Mcm2 IP),Mcm2 and Mcm6 interactions with GINS ([5]; Psf1 IP),Psf1-3 interactions ([5]; Psf1 IP),MCM interactions [6],"Psf1, Cdc45 and Ctf4 association with Flag-Mcm2 [6]","gamma-H2AX and Parp cleavage, tumor lines vs HaCaT [7]",gamma-H2AX and Parp cleavage (HaCaT cells [8]),effect on HaCaT viability (HaCaT cells [1]),effect on tumor cell viability (143B cells),DNA Polymerase-theta inhibition (DNA Polymerase-theta)
CO[C@@H]1[C@@H](OC(=O)c2ccc(C)[nH]2)[C@@H](O)[C@H](Oc2ccc3c(O)c(NC(=O)c4c[nH]c(C(=O)Nc5c(O)c6ccc(O[C@@H]7OC(C)(C)[C@H](OC)[C@@H](OC(=O)c8ccc(C)[nH]8)[C@H]7O)c(C)c6oc5=O)c4C)c(=O)oc3c2C)OC1(C)C [CA1],~15 µM,1 to 4 µM,4-10 times,no phosphorylation changes,no effect on these substrates,causes Cdc45 to dissociate from MCMs,does not disrupt MCM complexes,abolished,did not disrupt Psf1-3 interactions,does not disrupt MCM interactions,"displaces Psf1, Cdc45, and Ctf4 from Flag-Mcm2",tumor cell-specific increase in DNA damage signals (gamma-H2AX surrogate) and Parp cleavage,HaCaT cells will eventually incur DNA damage and Parp cleavage,,,
CO[C@@H]1[C@@H](OC(N)=O)[C@@H](O)[C@H](Oc2ccc3c(O)c(NC(=O)c4ccc(O)c(CC=C(C)C)c4)c(=O)oc3c2C)OC1(C)C [novobiocin],,,,,,,,,,,,,,little effect on viability,little effect until higher concentrations are tested,"can inhibit a different anti-cancer target, DNA Polymerase-theta"
